Biological target: T1, MOR (Rattus norvegicus, UniProt P33535)
T1 construct: a: performed in rat whole brain membrane homogenates; from tissue; host or cells: Wistar rat whole brain membrane homogenate
Assay: Radioligand competition binding with [3H]DAMGO
Conditions: for Ki: Cheng-Prusoff; for IC50: read-out: logIC50 ± S.E.M., [3H]DAMGO (MOR) (converted)
Experimental: Tris-HCl, EGTA, NaCl, MgCl2 x 6H2O, GDP, the GTP analogue GTPγS, were purchased from Sigma-Aldrich (Budapest, Hungary). Fatty acid free bovine serum albumin (BSA) was purchased from Serva (Heidelberg, Germany). Naloxone was kindly provided by the company Endo Laboratories DuPont de Nemours (Wilmington, DE, USA). HS665 was provided by Schmidhammer’s group (University of Innsbruck, Austria). […]
purchased from Tocris Bioscience (Bristol, UK).
DMSO. All compounds were stored in 1 mM stock solution at -20 °C. The radiolabelled GTP analogue, [35S]GTPγS (specific activity: 1000 Ci/mmol) were purchased from Hartmann Analytic (Braunschweig, Germany). [3H]DAMGO (specific activity: 38.8 Ci/mmol),12 [3H]IleDelt II (specific activity: 19,6 Ci/mmol), [3H]WIN55,212-2 (specific activity: 13,1 Ci/mmol) and [3H]HS665 (specific activity: 36.62 Ci/mmol),3 were radiolabeled by the Laboratory of Chemical Biology group in BRC (Szeged, Hungary).
For membrane homogenate preparations male and female Wistar rats (250-300 g body weight) and male guinea pigs (~700 g body weight, LAL/HA/BR strain) were used. Rats were housed in the local animal house of BRC (Szeged, Hungary), while guinea pigs were housed in LAB-ÁLL Bt.
(Budapest, Hungary). All the animals were kept in a temperature controlled room (21-24 °C) under a 12:12 light and dark cycle and were provided with water and food ad libitum. All housing and experiments were conducted in accordance with the European Communities Council Directives (2010/63/EU) and the Hungarian Act for the Protection of Animals in Research (XXVIII.tv. 32.§).
The total number of animals as well as their suffering was minimized.
Rat and guinea pig brain membrane homogenate preparation for binding assays Rats and guinea pigs were decapitated and their brains were quickly removed. The brains were prepared for membrane preparation as previously described,4 and partly used for binding experiments and partly were further prepared for the [35S]GTPγS binding experiments. Briefly the brains were homogenized, centrifuged in ice-cold 50 mM Tris-HCl (pH 7.4) buffer and incubated at 37 °C for 30 min in a shaking water-bath. After incubation the centrifugation was repeated as described above and the final pellet was suspended in 50 mM Tris-HCl pH 7.4 buffer containing 0.32 M sucrose, and stored at -80 °C. For the [35S]GTPγS binding experiments the final pellet of rat […]
brain membrane homogenate was suspended in ice-cold TEM (Tris-HCl, EGTA, MgCl2) and stored at -80 °C for further use.
Radioligand competition binding experiments
Aliquots of frozen rat brain membrane homogenates were centrifuged (18 000 rpm, 20 min, 4 °C) to remove sucrose and the pellets were suspended in 50 mM Tris-HCl buffer (pH 7.4). Membranes containing 0.4-0.8 mg/mL of protein were incubated in a final volume of 1 mL in the presence of unlabeled 5, 10 and 9 in increasing concentrations (10-11-10-5 M) in the presence of the appropriate radioligand in ~1 nM concentrations at certain temperature and amount of time depending on the radioligand ([3H]DAMGO and [3H]IleDelt II: 35 °C for 45 min; [3H]HS665: 30 °C, 45 min; [3H]WIN55,212-2: 30 °C for 60 min). Experiments performed with [3H]HS665 where incubated […]
more kappa receptors than the rat brain), while the rest of the radioligands were incubated together with rat whole brain membrane homogenates. Additionally, in experiments performed with […]
increasing concentrations (10-11-10-5 M) together with 50 mM Tris/HCl, 2.5 mM EGTA, 5 mM MgCl2 and 0.5 mg/mL fatty acid free BSA (pH 7.4). The level of non-specific binding was […]
binding was determined in the absence of unlabeled compounds. The reaction was terminated by rapid filtration under vacuum (Brandel M24R Cell Harvester), and washed three times with 5 mL ice-cold 50 mM Tris-HCl or 50 mM Tris/HCl, 2.5 mM EGTA, 5 mM MgCl2, 0.5 % BSA (pH 7.4) in case of [3H]WIN55,212-2. The filtration was accomplished through Whatman GF/C ([3H]DAMGO, [3H]IleDelt II and [3H]HS665) or GF/B ([3H]WIN55,212-2) glass fibers. In case of […]

[1] = rat whole brain membrane homogenates
[2] = rat whole brain membrane homogenates, logarithm of IC50, negative sign printed

T1 sequence (P33535 whole entry): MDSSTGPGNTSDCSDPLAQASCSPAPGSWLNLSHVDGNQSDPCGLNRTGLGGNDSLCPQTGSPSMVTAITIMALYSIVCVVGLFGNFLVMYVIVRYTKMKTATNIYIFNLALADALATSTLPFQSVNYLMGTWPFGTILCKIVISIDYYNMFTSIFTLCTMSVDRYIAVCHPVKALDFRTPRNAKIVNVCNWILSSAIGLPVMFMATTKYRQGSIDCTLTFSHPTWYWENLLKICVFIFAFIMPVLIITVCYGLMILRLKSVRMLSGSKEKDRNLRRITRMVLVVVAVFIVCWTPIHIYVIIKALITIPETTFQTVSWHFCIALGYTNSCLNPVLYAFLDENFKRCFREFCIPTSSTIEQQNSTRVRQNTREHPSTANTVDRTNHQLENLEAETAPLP

SMILES: C[C@@H](NC(=O)[C@@H](N)Cc1ccc(O)cc1)C(=O)NCC(=O)N[C@@H](Cc1ccccc1)C(N)=O [Compound 10, Tyr-D-Ala-Gly-Phe-NH2, reference compound]
- MOR binding affinity in words: high affinity
- Ki [1]: 1 nM
- IC50 [2]: 6.17 nM

SMILES: Cc1c(C(=O)NC2CCN(C(=O)[C@H](Cc3ccccc3)NC(=O)CNC(=O)[C@@H](C)NC(=O)[C@@H](N)Cc3ccc(O)cc3)CC2)nn(-c2ccc(Cl)cc2Cl)c1-n1cccc1 [Compound 9]
- MOR binding affinity in words: loss in affinity
- Ki [1]: 34.4 nM
- IC50 [2]: 204 nM
- Selectivity ratio DOR/MOR (ratio of Ki values): 12.88
- Selectivity ratio KOR/MOR (ratio of Ki values): 4.93

SMILES: Cc1c(C(=O)NC2CCNCC2)nn(-c2ccc(Cl)cc2Cl)c1-n1cccc1 [Compound 5]
- MOR binding affinity in words: did not bind
- logIC50 ± S.E.M., [3H]DAMGO (MOR) [2]: ambiguous

— publication PMC6009935 (Journal of Enzyme Inhibition and Medicinal Chemistry, 2017)
